Starred links: 1 amine or outer side, 2 acyl side, 3 side chain; linkers in the order of their positions; H or OH if unused. Positions of bridges follow the written chain, without caps; N, C: chain ends. Non-standard residues stand in square brackets, D forms with d. Residues, ends and D or L forms follow the SMILES beside them. Groups on a side chain read outwards from the residue. *: point of attachment. CH3O(CH2CH2O)11CH2CH2CO = COCCOCCOCCOCCOCCOCCOCCOCCOCCOCCOCCOCCC(=O)*; PEG12 = NCCOCCOCCOCCOCCOCCOCCOCCOCCOCCOCCOCCOCCC(=O)O; Trp(7-Me) = Cc1cccc2c(C[C@H](N)C(=O)O)c[nH]c12; C18 diacid = O=C(O)CCCCCCCCCCCCCCCCC(=O)*; γGlu = O=C(O)[C@H](CCC(=O)[*:2])N[*:1]; 2Nal = N[C@@H](Cc1ccc2ccccc2c1)C(=O)O; Palmitoyl = CCCCCCCCCCCCCCCC(=O)*; 3Pal = N[C@@H](Cc1cccnc1)C(=O)O; αMeL = CC(C)C[C@](C)(N)C(=O)O; PEG4 = NCCOCCOCCOCCOCCC(=O)O; Pen = CC(C)(S)[C@H](N)C(=O)O; αMeK = C[C@](N)(CCCCN)C(=O)O; X3 = COCCOCCOCCOCCC(=O)*; Thp = NC1(C(=O)O)CCOCC1; Sar = CNCC(=O)O
target: IL-23R-expressing DB cells (Homo sapiens, UniProt Q5VWK5); assay: DB Cells IL23R pSTAT3 Cell Assay; format: cell-based; conditions: pSTAT3 (HTRF) in IL-23R-expressing DB cells, 0.5 nM IL-23, 30 minutes; Table 6 'IL-23 Cell Data'
Sequence (Q5VWK5 24-629 limits assumed): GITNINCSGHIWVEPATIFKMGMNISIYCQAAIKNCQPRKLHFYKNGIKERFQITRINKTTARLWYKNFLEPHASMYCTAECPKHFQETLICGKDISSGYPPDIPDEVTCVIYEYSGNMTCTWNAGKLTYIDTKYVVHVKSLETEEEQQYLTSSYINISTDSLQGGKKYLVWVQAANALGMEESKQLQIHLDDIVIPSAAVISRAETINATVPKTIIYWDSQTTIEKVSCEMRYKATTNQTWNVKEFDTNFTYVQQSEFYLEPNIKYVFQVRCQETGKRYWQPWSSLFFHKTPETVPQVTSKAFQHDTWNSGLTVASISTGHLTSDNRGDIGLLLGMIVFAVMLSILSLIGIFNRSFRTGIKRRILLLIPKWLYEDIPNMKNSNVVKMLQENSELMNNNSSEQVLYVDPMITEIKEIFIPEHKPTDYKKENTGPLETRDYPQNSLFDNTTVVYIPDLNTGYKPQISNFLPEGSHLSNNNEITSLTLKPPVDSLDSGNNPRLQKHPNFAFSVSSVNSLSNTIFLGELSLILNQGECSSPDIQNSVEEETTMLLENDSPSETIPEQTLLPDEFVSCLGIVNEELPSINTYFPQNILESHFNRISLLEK
Experimental: IL-23 is believed to play a central role in supporting and maintaining Th17 differentiation in vivo. This process is thought to be mediated primarily through the Signal Transducer and Activator of Transcription 3 (STAT3), with phosphorylation of STAT3 (to yield pSTAT3) leading to upregulation of RORC and pro-inflammatory IL-17. […] DB cells (ATCC #CRL-2289), cultured in RPMI-1640 medium (Thermo Scientific #11875093) supplemented with 10% FBS, were added at 5 X 10E5 cells/well and incubated for 30 minutes at 37° C. in a 5% CO2 humidified incubator. Changes in phospho-STAT3 levels in the cell lysates were detected using the Cisbio HTRF pSTAT3 (Tyr705) Cellular Assay Kit (Cisbio #62AT3PEH), according to manufacturer's Two Plate Assay protocol. Where not shown or it is marked as “0”, data was not yet determined.

SMILES | IC50 [nM]
CCCCCCCCCCCCCCCC(=O)N[C@@H](CCC(=O)NCCOCCOCCOCCOCCOCCOCCOCCOCCOCCOCCOCCOCCC(=O)NCCCC[C@](C)(NC(=O)[C@H](Cc1ccc2ccccc2c1)NC(=O)[C@H](Cc1ccc(OC)cc1)NC(=O)[C@H]1NC(=O)[C@H](CCCCNC(C)=O)NC(=O)[C@H](Cc2c[nH]c3c(C)cccc23)NC(=O)[C@H]([C@@H](C)O)NC(=O)[C@H](CC(N)=O)NC(=O)[C@@H](NC(C)=O)C(C)(C)SSC1(C)C)C(=O)N[C@@H](C)C(=O)N[C@@H](C)C(=O)N[C@@H](Cc1cccnc1)C(=O)N(C)CC(N)=O)C(=O)O [Example 225, Ac-[Pen]-N-T-[Trp(7-Me)]-[Lys(Ac)]-[Pen]-[Phe(4-OMe)]-[2Nal]-[aMeLys(PEG12_IsoGlu_Palm)]-A-A-[3Pal]-[Sarc]-NH2] | 0.811
CCCCCCCCCCCCCCCC(=O)N[C@@H](CCC(=O)NCCOCCOCCOCCOCCOCCOCCOCCOCCOCCOCCOCCOCCC(=O)NCCCC[C@](C)(NC(=O)[C@H](Cc1ccc2ccccc2c1)NC(=O)[C@H](Cc1ccc(OC)cc1)NC(=O)[C@H]1NC(=O)[C@H](CCCCNC(C)=O)NC(=O)[C@H](Cc2c[nH]c3c(C)cccc23)NC(=O)[C@H]([C@@H](C)O)NC(=O)[C@H](C)NC(=O)[C@@H](NC(C)=O)C(C)(C)SSC1(C)C)C(=O)N[C@@H](CCCCNC(C)=O)C(=O)N[C@@H](CC(N)=O)C(=O)N[C@@H](Cc1cccnc1)C(=O)N(C)CC(N)=O)C(=O)O [Example 226, Ac-[Pen]-A-T-[Trp(7-Me)]-[Lys(Ac)]-[Pen]-[Phe(4-OMe)]-[2Nal]-[aMeLys(PEG12_IsoGlu_Palm)]-[Lys(Ac)]-N-[3Pal]-[Sarc]-NH2] (Ac-[Pen]AT[Trp(7-Me)]K(Ac)[Pen]Y(Me)[2Nal][αMeK]([PEG12-γGlu-Palmitoyl])K(Ac)N[3Pal][Sar]-NH2; disulfide 1-6) | 0.633
CCCCCCCCCCCCCCCC(=O)N[C@@H](CCC(=O)NCCOCCOCCOCCOCCOCCOCCOCCOCCOCCOCCOCCOCCC(=O)NCCCC[C@H](NC(=O)C1(NC(=O)[C@H](Cc2ccc3ccccc3c2)NC(=O)[C@H](Cc2ccc(OC)cc2)NC(=O)[C@H]2NC(=O)[C@H](CCCCNC(C)=O)NC(=O)[C@H](Cc3c[nH]c4c(C)cccc34)NC(=O)[C@H]([C@@H](C)O)NC(=O)[C@H](CC(C)C)NC(=O)[C@@H](NC(C)=O)C(C)(C)SSC2(C)C)CCOCC1)C(=O)N[C@@H](CC(C)C)C(=O)N[C@@H](Cc1cccnc1)C(=O)N(C)CC(N)=O)C(=O)O [Example 243, Ac-[Pen]-L-T-[Trp(7-Me)]-[Lys(Ac)]-[Pen]-[Phe(4-OMe)]-[2Nal]-[THP]-[Lys(PEG12_IsoGlu_Palm)]-L-[3Pal]-[Sarc]-NH2] (Ac-[Pen]LT[Trp(7-Me)]K(Ac)[Pen]Y(Me)[2Nal][Thp]K([PEG12-γGlu-Palmitoyl])L[3Pal][Sar]-NH2; disulfide 1-6) | 4.3
COc1ccc(C[C@H](NC(=O)[C@H]2NC(=O)[C@H](CCCCNC(=O)CCOCCOCCOCCOCCNC(=O)CCCCCCCCCCCCCCCCC(=O)O)NC(=O)[C@H](Cc3c[nH]c4c(C)cccc34)NC(=O)[C@H]([C@@H](C)O)NC(=O)[C@H](CC(C)C)NC(=O)[C@@H](NC(C)=O)C(C)(C)SSC2(C)C)C(=O)N[C@@H](Cc2ccc3ccccc3c2)C(=O)NC2(C(=O)N[C@@H](CC(C)C)C(=O)N[C@@H](CC(C)C)C(=O)N[C@@H](Cc3cccnc3)C(=O)N(C)CC(N)=O)CCOCC2)cc1 [Example 262, Ac-[Pen]-L-T-[Trp(7-Me)]-[Lys(PEG4_C18_Diacid)]-[Pen]-[Phe(4-OMe)]-[2Nal]-[THP]-L-L-[3Pal]-[Sarc]-NH2] (Ac-[Pen]LT[Trp(7-Me)]K([PEG4-C18 diacid])[Pen]Y(Me)[2Nal][Thp]LL[3Pal][Sar]-NH2; disulfide 1-6) | > 10
COc1ccc(C[C@H](NC(=O)[C@H]2NC(=O)[C@H](CCCCNC(=O)CCOCCOCCOCCOCCOCCOCCOCCOCCOCCOCCOCCOCCNC(=O)CC[C@H](NC(=O)CCCCCCCCCCCCCCCCC(=O)O)C(=O)O)NC(=O)[C@H](Cc3c[nH]c4c(C)cccc34)NC(=O)[C@H]([C@@H](C)O)NC(=O)[C@H](CC(C)C)NC(=O)[C@@H](NC(C)=O)C(C)(C)SSC2(C)C)C(=O)N[C@@H](Cc2ccc3ccccc3c2)C(=O)NC2(C(=O)N[C@@H](CC(C)C)C(=O)N[C@@H](CC(C)C)C(=O)N[C@@H](Cc3cccnc3)C(=O)N(C)CC(N)=O)CCOCC2)cc1 [Example 268, Ac-[Pen]-L-T-[Trp(7-Me)]-[Lys(PEG12_IsoGlu_C18_Diacid)]-[Pen]-[Phe(4-OMe)]-[2Nal]-[THP]-L-L-[3Pal]-[Sarc]-NH2] (Ac-[Pen]LT[Trp(7-Me)]K([PEG12-γGlu-C18 diacid])[Pen]Y(Me)[2Nal][Thp]LL[3Pal][Sar]-NH2; disulfide 1-6) | > 10
COc1ccc(C[C@H](NC(=O)[C@H]2NC(=O)[C@H](CCCCNC(=O)CC[C@H](NC(=O)CCCCCCCCCCCCCCCCC(=O)O)C(=O)O)NC(=O)[C@H](Cc3c[nH]c4c(C)cccc34)NC(=O)[C@H]([C@@H](C)O)NC(=O)[C@H](CC(C)C)NC(=O)[C@@H](NC(C)=O)C(C)(C)SSC2(C)C)C(=O)N[C@@H](Cc2ccc3ccccc3c2)C(=O)NC2(C(=O)N[C@@H](CCCCNC(C)=O)C(=O)N[C@@H](CC(C)C)C(=O)N[C@@H](Cc3cccnc3)C(=O)N(C)CC(N)=O)CCOCC2)cc1 [Example 271, Ac-[Pen]-L-T-[Trp(7-Me)]-[Lys(IsoGlu_C18_Diacid)]-[Pen]-[Phe(4-OMe)]-[2Nal]-[THP]-[Lys(Ac)]-L-[3Pal]-[Sarc]-NH2] (Ac-[Pen]LT[Trp(7-Me)]K([γGlu-C18 diacid])[Pen]Y(Me)[2Nal][Thp]K(Ac)L[3Pal][Sar]-NH2; disulfide 1-6) | > 10

Results, then the compound that gave them:

IC50 [nM] | SMILES
0.631 | COCCOCCOCCOCCOCCOCCOCCOCCOCCOCCOCCOCCC(=O)N[C@@H]1C(=O)N[C@@H](CC(N)=O)C(=O)N[C@@H]([C@@H](C)O)C(=O)N[C@@H](Cc2c[nH]c3c(C)cccc23)C(=O)N[C@@H](CCCCNC(C)=O)C(=O)N[C@H](C(=O)N[C@@H](Cc2ccccc2)C(=O)N[C@@H](Cc2ccc3ccccc3c2)C(=O)N[C@@](C)(CC(C)C)C(=O)N[C@@H](CC(C)C)C(=O)N[C@@H](CC(N)=O)C(=O)N[C@@H](Cc2cccnc2)C(=O)N(C)CC(N)=O)C(C)(C)SSC1(C)C [Example 207, [PEG12_OMe]-[Pen]-N-T-[Trp(7-Me)]-[Lys(Ac)]-[Pen]-F-[2Nal]-[aMeLeu]-L-N-[3Pal]-[Sarc]-NH2] ({CH3O(CH2CH2O)11CH2CH2CO}-[Pen]NT[Trp(7-Me)]K(Ac)[Pen]F[2Nal][αMeL]LN[3Pal][Sar]-NH2; disulfide 1-6)
0.07 | COCCOCCOCCOCCOCCOCCOCCOCCOCCOCCOCCOCCC(=O)N[C@@H]1C(=O)N[C@@H](CC(C)C)C(=O)N[C@@H]([C@@H](C)O)C(=O)N[C@@H](Cc2c[nH]c3c(C)cccc23)C(=O)N[C@@H](CCCCNC(C)=O)C(=O)N[C@H](C(=O)N[C@@H](Cc2ccccc2)C(=O)N[C@@H](Cc2ccc3ccccc3c2)C(=O)N[C@@](C)(CC(C)C)C(=O)N[C@@H](CC(C)C)C(=O)N[C@@H](CC(N)=O)C(=O)N[C@@H](Cc2cccnc2)C(=O)N(C)CC(N)=O)C(C)(C)SSC1(C)C [Example 209, [PEG12_OMe]-[Pen]-L-T-[Trp(7-Me)]-[Lys(Ac)]-[Pen]-F-[2Nal]-[aMeLeu]-L-N-[3Pal]-[Sarc]-NH2] ({CH3O(CH2CH2O)11CH2CH2CO}-[Pen]LT[Trp(7-Me)]K(Ac)[Pen]F[2Nal][αMeL]LN[3Pal][Sar]-NH2; disulfide 1-6)
0.062 | COCCOCCOCCOCCC(=O)N[C@@H]1C(=O)N[C@@H](CC(N)=O)C(=O)N[C@@H]([C@@H](C)O)C(=O)N[C@@H](Cc2c[nH]c3c(C)cccc23)C(=O)N[C@@H](CCCCNC(C)=O)C(=O)N[C@H](C(=O)N[C@@H](Cc2ccccc2)C(=O)N[C@@H](Cc2ccc3ccccc3c2)C(=O)N[C@@](C)(CC(C)C)C(=O)N[C@@H](CC(C)C)C(=O)N[C@@H](CC(N)=O)C(=O)N[C@@H](Cc2cccnc2)C(=O)N(C)CC(N)=O)C(C)(C)SSC1(C)C [Example 211, [PEG4_OMe]-[Pen]-N-T-[Trp(7-Me)]-[Lys(Ac)]-[Pen]-F-[2Nal]-[aMeLeu]-L-N-[3Pal]-[Sarc]-NH2] (X3-[Pen]NT[Trp(7-Me)]K(Ac)[Pen]F[2Nal][αMeL]LN[3Pal][Sar]-NH2; disulfide 1-6)
0.13 | COCCOCCOCCOCCC(=O)N[C@@H]1C(=O)N[C@@H](CC(C)C)C(=O)N[C@@H]([C@@H](C)O)C(=O)N[C@@H](Cc2c[nH]c3c(C)cccc23)C(=O)N[C@@H](CCCCNC(C)=O)C(=O)N[C@H](C(=O)N[C@@H](Cc2ccccc2)C(=O)N[C@@H](Cc2ccc3ccccc3c2)C(=O)N[C@@](C)(CC(C)C)C(=O)N[C@@H](CC(C)C)C(=O)N[C@@H](CC(N)=O)C(=O)N[C@@H](Cc2cccnc2)C(=O)N(C)CC(N)=O)C(C)(C)SSC1(C)C [Example 213, [PEG4_OMe]-[Pen]-L-T-[Trp(7-Me)]-[Lys(Ac)]-[Pen]-F-[2Nal]-[aMeLeu]-L-N-[3Pal]-[Sarc]-NH2] (X3-[Pen]LT[Trp(7-Me)]K(Ac)[Pen]F[2Nal][αMeL]LN[3Pal][Sar]-NH2; disulfide 1-6)

Source: patent US12478617B2, “Lipidated peptide inhibitors of interleukin-23 receptor” (JANSSEN BIOTECH, INC., priority 2021, dated 2025)
